According to the supplement of paper PMC5662764:
± gives the standard deviation of the averaged measurements.

Assays:
Test in all cases: normalised growth rate inhibition (GR value) relative to DMSO control (GR (1 = untreated growth, 0 = cytostasis, <0 = cytotoxic)); higher = less growth inhibition
Conditions in all cases: 72 h
HS578T = test system: HS578T
Method: (§1)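 Breast cancer cell lines (BT-20, Hs 578T, MCF 10A, MCF7, MDA-MB-231, SK-BR-3) were plated in 384-well plates and treated 24 h later with drugs at six concentrations (0.04-10 µM). Viable cells were counted by Hoechst/dead-cell-stain imaging at 0 and 72 h. Counts were normalised to DMSO controls on the same plate to give the relative cell count and the growth-rate inhibition (GR) value; technical plate triplicates were averaged for each biological replicate.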

SKBR3 = test system: SKBR3
Method: as §1

MCF10A = test system: MCF10A
Method: as §1

BT20 = test system: BT20
Method: as §1

MCF7 = test system: MCF7
Method: as §1

MDAMB231 = test system: MDAMB231
Method: as §1

SMILES	normalised growth rate inhibition (HS578T; 0.04 µM)	normalised growth rate inhibition (HS578T; 0.12 µM)	normalised growth rate inhibition (HS578T; 0.37 µM)	normalised growth rate inhibition (HS578T; 1.11 µM)	normalised growth rate inhibition (HS578T; 3.33 µM)	normalised growth rate inhibition (HS578T; 10 µM)	normalised growth rate inhibition (SKBR3; 0.04 µM)	normalised growth rate inhibition (SKBR3; 0.12 µM)	normalised growth rate inhibition (SKBR3; 0.37 µM)	normalised growth rate inhibition (SKBR3; 1.11 µM)	normalised growth rate inhibition (SKBR3; 3.33 µM)	normalised growth rate inhibition (SKBR3; 10 µM)	normalised growth rate inhibition (MCF10A; 0.04 µM)	normalised growth rate inhibition (MCF10A; 0.12 µM)	normalised growth rate inhibition (MCF10A; 0.37 µM)	normalised growth rate inhibition (MCF10A; 1.11 µM)	normalised growth rate inhibition (MCF10A; 3.33 µM)	normalised growth rate inhibition (MCF10A; 10 µM)	normalised growth rate inhibition (BT20; 0.04 µM)	normalised growth rate inhibition (BT20; 0.12 µM)	normalised growth rate inhibition (BT20; 0.37 µM)	normalised growth rate inhibition (BT20; 1.11 µM)	normalised growth rate inhibition (BT20; 3.33 µM)	normalised growth rate inhibition (BT20; 10 µM)	normalised growth rate inhibition (MCF7; 0.04 µM)	normalised growth rate inhibition (MCF7; 0.12 µM)	normalised growth rate inhibition (MCF7; 0.37 µM)	normalised growth rate inhibition (MCF7; 1.11 µM)	normalised growth rate inhibition (MCF7; 3.33 µM)	normalised growth rate inhibition (MCF7; 10 µM)	normalised growth rate inhibition (MDAMB231; 0.04 µM)	normalised growth rate inhibition (MDAMB231; 0.12 µM)	normalised growth rate inhibition (MDAMB231; 0.37 µM)	normalised growth rate inhibition (MDAMB231; 1.11 µM)	normalised growth rate inhibition (MDAMB231; 3.33 µM)	normalised growth rate inhibition (MDAMB231; 10 µM)
COc1cc(N2CCC(C(N)=O)CC2)ccc1Nc1nc(N)c(Cl)c(Nc2ccccc2S(=O)(=O)C(C)C)n1 [HG-5-88-01]	0.942 ± 0.016	0.933 ± 0.04	0.885 ± 0.015	0.8637 ± 0.0081	0.839 ± 0.022	0.664 ± 0.034	0.548 ± 0.13	0.691 ± 0.1	0.678 ± 0.073	0.699 ± 0.08	0.641 ± 0.17	0.133 ± 0.15	0.933 ± 0.075	0.879 ± 0.09	0.766 ± 0.14	0.709 ± 0.16	0.627 ± 0.2	0.452 ± 0.11	0.747 ± 0.087	0.921 ± 0.066	0.937 ± 0.039	0.887 ± 0.022	0.846 ± 0.048	0.404 ± 0.013	0.635 ± 0.082	0.602 ± 0.04	0.493 ± 0.081	0.364 ± 0.071	0.208 ± 0.11	-0.0672 ± 0.054	0.794 ± 0.12	0.861 ± 0.12	0.791 ± 0.11	0.796 ± 0.14	0.783 ± 0.17	0.451 ± 0.089
CC(C)(C)c1cnc(CSc2cnc(NC(=O)C3CCNCC3)s2)o1	0.786 ± 0.044	-0.123 ± 0.12	-0.146 ± 0.094	-0.155 ± 0.12	-0.137 ± 0.095	-0.148 ± 0.11	0.464 ± 0.18	-0.223 ± 0.15	-0.312 ± 0.17	-0.332 ± 0.17	-0.343 ± 0.21	-0.367 ± 0.21	0.921 ± 0.093	0.0575 ± 0.011	-0.186 ± 0.2	-0.256 ± 0.23	-0.261 ± 0.23	-0.254 ± 0.19	0.885 ± 0.061	0.134 ± 0.27	-0.239 ± 0.067	-0.323 ± 0.17	-0.33 ± 0.19	-0.299 ± 0.2	-0.0791 ± 0.16	-0.295 ± 0.04	-0.329 ± 0.061	-0.326 ± 0.058	-0.34 ± 0.063	-0.354 ± 0.083	0.314 ± 0.11	-0.201 ± 0.17	-0.24 ± 0.17	-0.23 ± 0.15	-0.203 ± 0.18	-0.201 ± 0.14
Cc1nc(NC(=O)N2CCC[C@H]2C(N)=O)sc1-c1ccnc(C(C)(C)C(F)(F)F)c1	0.971 ± 0.012	0.9151 ± 0.001	0.871 ± 0.026	0.838 ± 0.026	0.762 ± 0.011	0.561 ± 0.051	0.896 ± 0.061	0.811 ± 0.059	0.679 ± 0.051	0.553 ± 0.039	0.323 ± 0.11	-0.0922 ± 0.15	0.976 ± 0.022	0.94 ± 0.041	0.896 ± 0.061	0.865 ± 0.064	0.77 ± 0.11	0.439 ± 0.14	1.04 ± 0.017	0.979 ± 0.048	0.722 ± 0.027	0.553 ± 0.12	0.123 ± 0.047	-0.157 ± 0.072	0.871 ± 0.11	0.701 ± 0.1	0.508 ± 0.14	0.365 ± 0.11	0.204 ± 0.099	-0.0344 ± 0.057	0.997 ± 0.058	0.986 ± 0.038	0.963 ± 0.048	0.935 ± 0.032	0.89 ± 0.015	0.65 ± 0.09
O=C(Nc1cccc(Nc2ncc(Br)c(NCCc3cnc[nH]3)n2)c1)N1CCCC1 [BX-912]	0.967 ± 0.021	0.906 ± 0.045	0.756 ± 0.16	0.375 ± 0.042	0.143 ± 0.076	-0.103 ± 0.14	0.724 ± 0.1	0.719 ± 0.089	0.175 ± 0.19	-0.0702 ± 0.08	-0.0412 ± 0.053	-0.0312 ± 0.089	0.95 ± 0.0022	0.92 ± 0.062	0.648 ± 0.3	0.206 ± 0.067	0.172 ± 0.068	0.0883 ± 0.057	0.8964 ± 0.0089	0.943 ± 0.034	0.936 ± 0.034	0.939 ± 0.032	0.839 ± 0.12	0.355 ± 0.13	0.816 ± 0.053	0.866 ± 0.058	0.731 ± 0.17	0.459 ± 0.1	0.293 ± 0.063	0.0193 ± 0.03	0.903 ± 0.0098	0.901 ± 0.083	0.694 ± 0.32	0.404 ± 0.23	0.194 ± 0.14	-0.0228 ± 0.27
CC[C@H](CO)Nc1nc(NCc2ccccc2)c2ncn(C(C)C)c2n1 [roscovitine]	1.009 ± 0.01	1.01 ± 0.016	0.975 ± 0.011	0.954 ± 0.034	0.95 ± 0.054	0.688 ± 0.062	1.04 ± 0.093	1.04 ± 0.045	0.979 ± 0.085	0.852 ± 0.043	0.677 ± 0.023	0.146 ± 0.18	0.9943 ± 0.0068	0.9805 ± 0.0066	0.9621 ± 0.0088	0.955 ± 0.014	0.926 ± 0.025	0.439 ± 0.19	1.022 ± 0.0042	0.9967 ± 0.0034	0.913 ± 0.029	0.844 ± 0.084	0.759 ± 0.062	0.197 ± 0.044	1.07 ± 0.066	1.02 ± 0.024	0.922 ± 0.048	0.818 ± 0.068	0.717 ± 0.087	-0.102 ± 0.15	1.03 ± 0.035	0.971 ± 0.03	0.926 ± 0.03	0.88 ± 0.033	0.811 ± 0.077	0.401 ± 0.068
Cn1cnc2c(F)c(Nc3ccc(Br)cc3Cl)c(C(=O)NOCCO)cc21 [selumetinib]	0.636 ± 0.094	0.53 ± 0.1	0.471 ± 0.068	0.428 ± 0.055	0.369 ± 0.036	0.26 ± 0.056	1.139 ± 0.0015	1.037 ± 0.0086	1.044 ± 0.0095	1.02 ± 0.052	1.02 ± 0.033	0.969 ± 0.034	0.598 ± 0.026	0.455 ± 0.053	0.36 ± 0.056	0.281 ± 0.053	0.25 ± 0.041	0.177 ± 0.042	1.11 ± 0.084	1.03 ± 0.099	0.999 ± 0.059	1.01 ± 0.061	0.974 ± 0.093	0.975 ± 0.081	0.867 ± 0.13	0.696 ± 0.071	0.568 ± 0.062	0.543 ± 0.072	0.575 ± 0.063	0.524 ± 0.024	0.846 ± 0.078	0.702 ± 0.097	0.545 ± 0.088	0.458 ± 0.068	0.36 ± 0.068	0.2 ± 0.083
C=CC(=O)N1CCc2ccc(-n3c(=O)ccc4cnc5ccc(-c6cnn(C)c6)cc5c43)cc21 [QL-XII-47]	0.895 ± 0.091	0.854 ± 0.11	0.713 ± 0.15	0.438 ± 0.24	0.153 ± 0.14	-0.127 ± 0.12	0.516 ± 0.042	0.35 ± 0.12	0.0964 ± 0.17	-0.108 ± 0.14	-0.26 ± 0.18	-0.3 ± 0.16	0.969 ± 0.021	0.953 ± 0.024	0.867 ± 0.11	0.683 ± 0.26	0.428 ± 0.32	-0.127 ± 0.14	0.669 ± 0.29	0.618 ± 0.31	0.351 ± 0.28	0.0671 ± 0.23	-0.135 ± 0.077	-0.259 ± 0.091	0.57 ± 0.16	0.35 ± 0.25	0.0387 ± 0.084	-0.0941 ± 0.045	-0.109 ± 0.017	-0.188 ± 0.12	0.659 ± 0.12	0.541 ± 0.14	0.337 ± 0.15	0.109 ± 0.14	-0.0169 ± 0.082	-0.128 ± 0.12
